Test results taken from PubChem BioAssay AID602156 (GNF / Scripps Winzeler lab, 2011).
“And” between values parts separate entries of the source, which are not always exact repeats. Equal values may be shown once. The source made the active and inactive calls. No rule for the calls is given here.

Tested on: P. yoelii liver stage in HepG2-A16-CD81EGFP, imaging
Experiment: Plasmodium liver-stage growth inhibition, dose response, imaging, Malaria Box, P. yoelii, HepG2-A16-CD81EGFP (AID 602156);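 also: infected cells exposed to compound for 48 hours before fixation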

| Compound | IC50 |
| --- | --- |
| CC(=O)N(C1=C(N(C)C)C(=O)c2ccccc2C1=O)c1ccc(F)cc1 | 57.3 nM |
| CCCCn1c(N=Nc2c(O)[nH]c3ccccc23)nc2c1c(=O)[nH]c(=O)n2C | > 10000 nM (inactive) |
| Cn1ncnc2c(=O)n(C)c(=O)nc1-2 | 103 nM |
| CCOC(=O)C1=C(C)NC2=C(C(=O)C(C(=O)OCC)C(c3cccc(OC)c3)C2)C1c1cc(OC)c(OC)c(OC)c1 (centres undefined) | 232 nM |
| Cc1c(C#N)c2ccccc2n1CC(=O)Nc1ccc(Br)cc1 | > 10000 nM (inactive) |
| C=CCN1C(=Cc2cc[n+](C)cc2)Sc2ccccc21 | 13.2 nM |
| CC(=O)Nc1nc(C)c(-c2csc(Nc3ccc(C)cc3)n2)s1 | 1890 nM |
| COc1ccc(CN2CCOc3ccc(C(C)(O)CN(C)C)cc3C2)cc1C (centres undefined) | 67.5 nM |
| Cc1ccc(C2Sc3ccccc3NC3=C2C(=O)c2ccccc23)cc1 (centres undefined) | 278 nM |
| CCC[n+]1cccc2ccc3cccnc3c21 | 903 nM |
| COc1ccc2sc(Nc3nc(-c4ccccn4)cs3)nc2c1 | 159 nM |
| CC(=O)N(C)C1=C(N2CCOCC2)C(=O)c2ccccc2C1=O | 229 nM |
| CCN(CC)CCCNc1nc2cc(OC)c(OC)cc2c2nc(-c3ccccc3)nn12 | 327 nM |
| NCC(=O)N1CCn2c(nc(-c3ccccc3)c2Nc2ccc3c(c2)OCO3)C1 | 221 nM |
| COc1ccc(C2CC(=O)C3=C(C2)NC(C)=C(C(=O)OC(C)C)C3c2cccc(C)c2)cc1OC (centres undefined) | 1840 nM |
| CCCC(=O)NC(c1ccc(Cl)cc1)c1ccc2cccnc2c1O (centres undefined) | 190 nM |
| O=c1c2c([nH]c3ccccc13)CCCCCCCCCC2 | 99 nM |
| CCN1C(=Cc2cc[n+](C)cc2)C=Cc2cc(C)ccc21 | 170 nM |
| COc1ccccc1-n1c(C=Cc2cc(Br)ccc2O)nc2ccccc2c1=O | 4590 nM |
| Cc1ccc(-c2cc3nc4c(c(=O)n3[nH]2)CCCC4)cc1 | 75.3 nM |
| CCC(C)Nc1nc(NC(C)CC)nc(N2CCCCCC2)n1 (centres undefined) | 300 nM |
| O=C1Nc2ccccc2C12Nc1ccccc1-c1nc3ccccc3n12 (centres undefined) | > 10000 nM (inactive) |

| Compound | IC50 |
| --- | --- |
| CC(Oc1ccc(Cl)cc1Cl)c1nc(-c2ccc(NC(=O)c3cccs3)cc2)no1 (centres undefined) | 114 nM |
| CC1(C)N=C(N)N=C(N)N1c1ccc(I)cc1 | 10 nM |
| CCOC(=O)CN(N=O)C1=C(N2CC2)C(=O)c2ccccc2C1=O | 480 nM |
| CC(C)NCC(O)Cn1c2ccc(Cl)cc2c2cc(Cl)ccc21 (centres undefined) | 2970 nM |
| CCCCSc1oc(C)nc1[P+](c1ccccc1)(c1ccccc1)c1ccccc1 | 82.1 nM |
| CCOC(=O)c1c[nH]c2ccc(OC)cc2c1=O | 293 nM and 135 nM |
| NC(Cc1ccccc1)C(=O)N1CCn2c(nc(-c3ccccc3)c2Nc2ccc3c(c2)OCO3)C1 (centres undefined) | 1.85 nM |
| CCCCOc1ccc(N(C(C)=O)C2=C(N3CCOCC3)C(=O)c3ccccc3C2=O)cc1 | 1790 nM |
| CC1CC(N(C(=O)c2ccc(Cl)cc2Cl)c2ccccc2)c2ccccc2N1C(=O)c1ccc(Cl)cc1 (centres undefined) | 3640 nM |
| CCCn1c(-c2cccc(Br)c2)nc2ccccc21 | > 8910 nM (inactive) |
| COc1ccc2nc(-c3ccccc3)cc(NCCN(C)C)c2c1 | 570 nM |
| CCN(CC)c1ccc(NC(=O)c2cccs2)cc1 | 396 nM |
| CCCc1nc2ccc(NC(=O)c3ccccc3F)cc2c(=O)n1Cc1ccc(-c2ccccc2)cc1 | 1730 nM |
| CCOC(=O)c1ccc2[nH]c(-c3ccccc3)cc(=O)c2c1 | 20 nM |
| CCOc1ccc(Nc2cc(=O)oc3ccccc23)cc1 | 502 nM |
| CC(=O)N1c2ccc(C)cc2C(C)(c2ccccc2)CC1(C)C (centres undefined) | 1250 nM |
| O=C1N(Cc2cc3ccccc3s2)CC2CN(Cc3ccsc3)CCN12 (centres undefined) | 25.5 nM |
| COc1ccc(C2CC(=O)C3=C(C2)NC(C)=C(C(=O)OC2CCCC2)C3c2ccc([N+](=O)[O-])cc2)cc1OC (centres undefined) | 3920 nM |
| O=C(c1cccc([N+](=O)[O-])c1)c1ccc(Cl)c(Cl)c1 | 3810 nM |
| Cc1cccc(-c2cc3nc(C)c(C)c(=O)n3[nH]2)c1 | 1100 nM |
| CCCCC(=O)NC(c1cccc([N+](=O)[O-])c1)c1ccc2cccnc2c1O (centres undefined) | 449 nM |
| Cc1ccc2cc(C)c(Nc3ccc(Cl)cc3)nc2c1 | 148 nM |

| Compound | IC50 |
| --- | --- |
| CC(C)c1nc(N2CCN(C(=O)Nc3ccccc3)CC2)c(C#N)c2c1COC(C)(C)C2 | 1020 nM |
| Cc1nc2cc(-c3ccc(I)cc3)[nH]n2c(=O)c1C | 119 nM |
| CCCCCc1c(C)c(C#N)c2nc3ccccc3n2c1NCCN(CC)CC | 702 nM |
| CCOC(=O)c1ccc(NCc2c(C)[nH]c3ccccc3c2=O)cc1 | 137 nM |
| O=C1c2ccccc2C2=Nc3ccccc3SC(c3cccc(F)c3)C12 (centres undefined) | 162 nM |
| Cc1ccnc(Nc2nc(-c3ccccn3)cs2)c1 | 95.6 nM |
| CCCCc1c(C)[nH]c2ccc(Br)cc2c1=O | 64.7 nM |
| CN(C)CCCN(Cc1cc2cc3c(cc2[nH]c1=O)OCO3)C(=S)Nc1cccc(Cl)c1 | 818 nM |
| CCCc1c(C)[nH]c2ccccc2c1=O | 279 nM |
| CCN(CC)CCCN(Cc1cc2ccc(C)cc2[nH]c1=O)C(=S)Nc1cccc(Cl)c1 | 448 nM |
| CC[n+]1c(/C=C/C=C2\N(C)c3ccccc3C2(C)C)n(-c2ccccc2)c2cc(Cl)ccc21 | 13.6 nM |
| CC(c1nc2ccccc2c(=O)n1C)N1CCN(C(=O)C(C)(C)C)CC1 (centres undefined) | 492 nM |
| Cc1ccccc1N=Nc1ccc(NC(=O)c2ccco2)c(C)c1 | 300 nM |
| CCOC(=O)C1(CC)CC(C)(C(=O)C[n+]2cccc(Br)c2)OC1=O (centres undefined) | > 10000 nM (inactive) |
| CC(C)(C)C1CCc2[nH]c3ccccc3c(=O)c2C1 (centres undefined) | 98.3 nM |
| Cc1cc(OC(C)C(=O)N2CCc3ccccc32)ccc1Cl (centres undefined) | 776 nM |
| Oc1c(CN2CCN(Cc3ccc4cccnc4c3O)CC2)ccc2cccnc12 | 96.6 nM |
| O=C(c1cc2nc(-c3ccccc3)cc(C(F)(F)F)n2n1)N1CCN(Cc2ccccc2)CC1 | > 10000 nM (inactive) |
| O=C(Nc1ccc(C(F)(F)F)cc1)c1ccc(NCCCN2CCCCCC2)c([N+](=O)[O-])c1 | 450 nM |
| Fc1ccc(-c2c[n+]3c(n2-c2ccccc2)SCC3)cc1 | > 4300 nM (inactive) |
| COc1cc(C(=O)NCCc2ccccn2)ccc1OC1CCN(CC(c2ccccc2)c2ccccc2)CC1 | 1280 nM |
| CCN(CC)CCCC(C)Nc1c2ccc(Cl)cc2nc2ccc(OC)cc12 (centres undefined) | 166 nM |

| Compound | IC50 |
| --- | --- |
| Cc1cccc2c1[nH]c1nc(SCC(C)C)nnc12 | 152 nM |
| N#CCSc1nc2ccccc2c2nc(CCc3c[nH]c4ccccc34)nn12 | > 10000 nM (inactive) |
| CCOc1ccc2ncc(S(=O)(=O)c3ccc(OC)cc3)c(N3CCN(C)CC3)c2c1 | 10.7 nM |
| CCn1c(/C=C/C=C2\N(C)c3ccccc3C2(C)C)[n+](Cc2ccccc2)c2ccccc21 | 6.76 nM |
| COc1ccccc1Nc1nc(NCc2ccccc2)c2ccccc2n1 | 91.3 nM |
| O=C1c2ccccc2-n2c1nc1ccccc1c2=O | 225 nM |
| Brc1ccc(Nc2nc(NCc3ccco3)c3ccccc3n2)cc1 | 163 nM |
| Cc1cc(C)nc(N=C(N)Nc2cccc(O)c2)n1 | 152 nM |
| CC[n+]1c(C=C2C=C(C)OC(C)=C2)sc2ccccc21 | 245 nM |
| O=C(Nc1ccc2oc(-c3cccc4ccccc34)nc2c1)c1ccc([N+](=O)[O-])o1 | 72.5 nM |
| CCOC(=O)c1cnc2ccc(OC)cc2c1Cl | 410 nM |
| COc1ccc(C2Sc3ccccc3NC3=C2C(=O)c2ccccc23)cc1 (centres undefined) | 706 nM |
| COc1ccc(C(NC(=O)c2cccnc2)c2cc(Cl)c3cccnc3c2O)cc1 (centres undefined) | 542 nM |
| COc1cccc(C(=O)NC(c2ccccc2OC)c2cc(Cl)c3cccnc3c2O)c1 (centres undefined) | 544 nM |
| c1ccc(-c2cc(N3CCN(c4ccccn4)CC3)nc(-c3ccccn3)n2)nc1 | 17.5 nM |
| COC(=O)c1c(-c2c(Cl)cccc2Cl)noc1NC(=O)NN1CCCCC1 | 647 nM |
| CC(=O)Nc1ccc(-c2nc(-c3ccc(Oc4ccc(-c5[nH]c(-c6ccc(NC(C)=O)cc6)nc5-c5ccccc5)cc4)cc3)c(-c3ccccc3)[nH]2)cc1 | > 3730 nM (inactive) |
| COc1ccc(C2N(Cc3ccccc3)c3ccccc3N2Cc2ccccc2)cc1 | 121 nM |
| COc1cc(C(=O)Nc2ccc3nc4n(c(=O)c3c2)CCCCC4)cc(OC)c1OC | > 10000 nM (inactive) |
| COc1cccc(NC(=O)Cn2c(C)c(C#N)c3ccccc32)c1 | > 9960 nM (inactive) |
| CCOC(=O)c1cn(CC)c2cc(N(C)CCc3ccc(OC)c(OC)c3)c(F)cc2c1=O | 42.1 nM |
| COc1ccc(C(c2ccc(N(C)C)cc2)c2ccc(N(C)C)cc2)cc1 | > 10000 nM (inactive) |

| Compound | IC50 |
| --- | --- |
| O=C(Nc1ccc(-c2ccc(Cl)cc2)cc1)c1cccs1 | 151 nM |
| CCc1noc(C)c1C(=O)NCCN1Cc2ccccc2OC(c2ccsc2)C1 (centres undefined) | > 10000 nM (inactive) |
| CCOC(=O)c1cnc2ccc(OC)cc2c1NCc1cccs1 | 193 nM |
| O=C(Cc1cccs1)N1CCN(c2ccccn2)CC1 | > 10000 nM (inactive) |
| Cc1ccc(Nc2cc(C)nc(NCc3ccccc3)n2)c(C)c1 | 1300 nM |
| COc1ccc2nc(C)cc(Nc3ccc(Oc4ccc5ccccc5c4Cl)c(Cl)c3)c2c1 | 114 nM |
| CCc1nc(N)nc(N)c1-c1ccc(Cl)cc1 | 2.15 nM |
| CC(Oc1ccc(Cl)cc1Cl)c1nc(-c2ccc(NC(=O)c3ccco3)cc2)no1 (centres undefined) | 154 nM |
| CCOC(=O)C1=C(C)NC2=C(C(=O)C(C(=O)OCC)C(c3ccccc3OC)C2)C1c1cc(OC)c(OC)c(OC)c1 (centres undefined) | 509 nM |
| Oc1c(C(Nc2ccccn2)c2cccc(Cl)c2Cl)ccc2cccnc12 (centres undefined) | 402 nM |
| O=C(NC1CC1)C1CCN(c2cccc3c2C(=O)N(Cc2cccc(C(F)(F)F)c2)C3=O)CC1 | 29.3 nM |
| COc1ccc2cc3[n+](cc2c1OC)CCc1cc2c(cc1-3)OCO2 | 548 nM |
| CCOC(=O)c1c[nH]c2ccc(C(C)C)cc2c1=O | 352 nM |
| CC1(C)C2CCC(C2)C1(C)NC(=S)NN=Cc1ccccn1 (centres undefined) | 17.4 nM |
| Fc1ccc(Nc2nc(NCc3ccccc3)c3ccccc3n2)cc1 | 3790 nM |
| O=[N+]([O-])c1cc(C(F)(F)F)ccc1N1CCCN(C(=S)Nc2ccccc2)CC1 | 2230 nM |
| Cc1ccc(NC(=O)C2C3C=CC4(O3)C2C(=O)N(CCCN2CCOCC2)C4C(=O)NC2CCCC(C)C2C)cc1Cl (centres undefined) | > 10000 nM (inactive) |
| CCOc1ccc(NC(=O)C(C)Sc2nc3ccccc3[nH]2)cc1 (centres undefined) | > 10000 nM (inactive) |
| CCCCN(CCCC)S(=O)(=O)c1ccc(NC(=O)c2ccco2)cc1 | 377 nM |
| CCCCCc1ccc(OCCCC[n+]2cccc(C)c2)c(CCCCC)c1 | 34.6 nM |
| COc1cccc(OC)c1C(=O)Nn1c(-c2cccc(C)c2)nc2ccccc2c1=O | > 10000 nM (inactive) |
